Test results as given in publication PMC7768359, “Synthesis of Platinum(II) Complexes with Some 1-Methylnitropyrazoles and In Vitro Research on Their Cytotoxic Activity” (Pharmaceuticals, 2020).

Tests used:
MCF-7 cells = test: Total cellular platinum uptake (ICP OES); type: cell-based, human; settings: MCF-7, 4 h exposure, 10 µM
Protocol: It is necessary to strongly emphasize that the underlined values have a statistically significant lack of variance homogeneity (Fisher–Snedecor’s F-test, Fα/2) with respect to reference drug variance, so Aspin–Welch’s t-test was applied in these cases. […] For ionic compound 8, platinum uptake value was not determined due to Pt concentrations in the cell lysates being below the instrument detection limit (IDL = 10 μg/kg) specified by the manufacturer for the device used.
Cultured MCF-7 cells were seeded at a density of 4 × 10^5 cells/well of culture medium on a 6-well plate (Corning, NY, USA) to a final volume of 2.5 mL. […] The wells without MCF-7 cells were filled with 1 mL of culture medium-containing compound tested to act as a reference for nonspecific platinum complex adsorption on the surface of the well. After incubation, all wells were washed twice with 2 mL of cold PBS, filled with 400 μL of hot (ca 90 °C) 65% nitric acid, and maintained to stand for 2 h. All wells were finally filled with 1600 μL of water and this solution was collected and analyzed using iCAP 7400 Duo ICP OES instrument (Thermo Fisher Scientific) using the plasma axial view (10 s) at λ = 265.945 nm. The amount of Pt per cell was calculated by subtracting the amount of Pt found in the blank well from the amount of Pt found in the cell-containing wells and normalized to the average number of cells per well. The mean and SD values were calculated on the basis of 4 measurements.

[1] = Reaction with L-glutathione, UV absorbance at 260 nm; type: physicochemical; settings: 2 mM GSH, pH 7.4, 37 °C
Source text: Platinum compounds have a strong ability to react with sulfur donor ligands. […] These side reactions are considered as playing an important role in mechanisms of tumor resistance to platinum drugs, their inactivation, and toxic side effects. The two most important endogenous thiols to which platinum complexes can bind after intravenous administration or after they enter the cancer cell are reduced L-glutathione (GSH) and metallothionein (MT). In the present work, we investigated reactions of GSH with compounds 1 and 2, measuring the UV absorbance at 260 nm (which indicates the formation of Pt–S and S–S bonds) as a function of time using a double-beam spectrophotometer (Figure 6). […] Despite the better solubility of tested complexes in acetone, dioxane was used in this experiment due to its lack of absorption of UV radiation at 260 nm in contrast to acetone that strongly absorbs at this wavelength preventing a correct measurement of absorbance changes.
The solutions of compounds 1 or 2 in dioxane (30 µL) at 60 mM concentration were added to 3 mL of 2 mM solution of GSH (reduced L-glutathione) previously saturated with argon in the medium containing 10 mmol/L NaCl and 10 mmol/L Tris xHCl buffer, pH 7.4, warmed to 37 °C, reaching a final concentration of […] of the platinum complex. The reaction progress during incubation at 37 °C was monitored using UV absorption spectrometry at 260 nm. […]

[2] = Qualitative solubility in water; type: physicochemical
Protocol: A solution of 254 mg (2 mmol) of 1-methyl-4-nitropyrazole in 15 mL of warm water was mixed with a solution of 415 mg (1 mmol) of K2PtCl4 in 5 mL of water. The reaction mixture was maintained in darkness at 25 °C and monitored periodically by TLC until the absence of free ligand (app. 3 weeks). Then, the yellow precipitate was filtered off and dried, giving 480 mg (92%) of the crude mixture, which mainly consisted of two individual Pt complexes (TLC). […] Combustion and spectral analyses for the cis complex 1: Elemental analysis for formula C8H10N6O4Cl2Pt of compound 1: Calculated/Found (%): C 18.47/18.80, H 1.94/1.89, N 16.16/15.97, Cl 13.63/13.70. ^1H NMR (300.15 MHz, acetone-d6): δ[ppm] […] Combustion and spectral analyses for the trans complex 2: Elemental analysis for formula C8H10N6O4Cl2Pt of the trans-complex 2: Calculated/Found (%): C 18.47/18.76, H 1.94/1.84, N 16.16/15.86, Cl 13.63/13.93. ^1H NMR (300.15 MHz, acetone-d6): δ[ppm] […] Analysis of Mass Spectrum (ESI-MS) of both complexes 1 and 2: The calculated value of the parent peak mass for the formula C8H10N6O4Cl2Pt was 518.9789 u.

| Compound | Total Cellular Platinum Uptake in MCF-7 Cells (± SD) (MCF-7 cells) [ng Pt/10^6 Cells] | half-time of the reaction with GSH [1] [min] | solubility in water [2] |
| --- | --- | --- | --- |
| Cn1c([N+](=O)[O-])cc[n+]1[Pt@SP3-2]([Cl])([Cl])[n+]1ccc([N+](=O)[O-])n1C [Compound 4, trans-dichloridobis(1-methyl-5-nitropyrazole)platinum(II)] | 83 ± 12 |  |  |
| Cn1cc([N+](=O)[O-])c[n+]1[Pt@SP3-2]([Cl])([Cl])[n+]1cc([N+](=O)[O-])cn1C [Compound 2, trans-dichloridobis(1-methyl-4-nitropyrazole)platinum(II)] | 32 ± 6 | 13 | very poorly in water |
| Cn1c([N+](=O)[O-])cc[n+]1[Pt@SP2-2]([Cl])([Cl])[n+]1ccc([N+](=O)[O-])n1C [Compound 3, cis-dichloridobis(1-methyl-5-nitropyrazole)platinum(II)] | 82 ± 11 |  |  |
| Cn1cc([N+](=O)[O-])c[n+]1[Pt@SP2-2]([Cl])([Cl])[n+]1cc([N+](=O)[O-])cn1C [Compound 1, cis-dichloridobis(1-methyl-4-nitropyrazole)platinum(II)] | 27 ± 6 | 83 | poorly in water |
